Here are results for six molecules from patent publication US6703485B2, “Brain and heart cyclic nucleotide gated ion channel compounds and uses thereof” (The Trustees of Columbia University in the City of New York, priority 1997, dated 2004).

Values joined by “and” are separate entries in the source; they are usually repeats but may differ in a detail not shown here. Equal entries are not always repeated.

In experiment [1] the test system is Pacemaker channel. As to conditions: myocardial ischemia, Schlack et al., 1998; cited from earlier work.
Experiment [2] has as its system Ih in hippocampal neurons. As to conditions: Pedarzani and Storm, 1995; cited from earlier work.
Experiment [3] has as its system If in sino-atrial node. As to conditions: DiFrancesco and Tortora, 1991; cited from earlier work.
Experiment [4] concerns Ih in sensory neurons. As to conditions: Ingram and Williams; cited from earlier work.
The target in experiment [5] is T1, bovine photoreceptor CNG channels (Bos taurus, UniProt Q00194).
T1 sequence (Q00194 1-690): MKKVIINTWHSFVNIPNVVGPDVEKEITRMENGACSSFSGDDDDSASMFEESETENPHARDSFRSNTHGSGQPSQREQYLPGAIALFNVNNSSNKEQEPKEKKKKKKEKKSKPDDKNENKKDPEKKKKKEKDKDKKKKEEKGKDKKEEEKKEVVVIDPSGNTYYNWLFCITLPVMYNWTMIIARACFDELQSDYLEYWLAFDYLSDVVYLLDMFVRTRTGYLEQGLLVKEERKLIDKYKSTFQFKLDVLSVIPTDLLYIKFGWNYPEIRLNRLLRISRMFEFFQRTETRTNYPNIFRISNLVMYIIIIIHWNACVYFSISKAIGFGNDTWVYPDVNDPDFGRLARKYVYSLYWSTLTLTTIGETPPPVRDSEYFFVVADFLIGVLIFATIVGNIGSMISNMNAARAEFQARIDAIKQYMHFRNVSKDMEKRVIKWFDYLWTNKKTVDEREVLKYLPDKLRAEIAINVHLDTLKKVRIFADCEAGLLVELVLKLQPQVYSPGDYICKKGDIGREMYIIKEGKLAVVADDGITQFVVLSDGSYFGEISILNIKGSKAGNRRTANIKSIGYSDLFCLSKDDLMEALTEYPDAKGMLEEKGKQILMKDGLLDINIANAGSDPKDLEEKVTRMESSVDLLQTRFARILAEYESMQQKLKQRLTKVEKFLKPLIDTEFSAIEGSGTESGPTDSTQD
As to conditions: Kramer and Tibbs, 1996; cited from earlier work.

Experiment [6] addresses T2, mBCNG-1 channel (Mus musculus, UniProt O88704).
T2 construct: expressed in transfected cells; host or cells: Xenopus oocytes injected with cRNA (pSD64TR vector, SP6 transcript); cell-free inside-out and outside-out patches
Type of experiment: biochemical.

T2 sequence (O88704 whole entry): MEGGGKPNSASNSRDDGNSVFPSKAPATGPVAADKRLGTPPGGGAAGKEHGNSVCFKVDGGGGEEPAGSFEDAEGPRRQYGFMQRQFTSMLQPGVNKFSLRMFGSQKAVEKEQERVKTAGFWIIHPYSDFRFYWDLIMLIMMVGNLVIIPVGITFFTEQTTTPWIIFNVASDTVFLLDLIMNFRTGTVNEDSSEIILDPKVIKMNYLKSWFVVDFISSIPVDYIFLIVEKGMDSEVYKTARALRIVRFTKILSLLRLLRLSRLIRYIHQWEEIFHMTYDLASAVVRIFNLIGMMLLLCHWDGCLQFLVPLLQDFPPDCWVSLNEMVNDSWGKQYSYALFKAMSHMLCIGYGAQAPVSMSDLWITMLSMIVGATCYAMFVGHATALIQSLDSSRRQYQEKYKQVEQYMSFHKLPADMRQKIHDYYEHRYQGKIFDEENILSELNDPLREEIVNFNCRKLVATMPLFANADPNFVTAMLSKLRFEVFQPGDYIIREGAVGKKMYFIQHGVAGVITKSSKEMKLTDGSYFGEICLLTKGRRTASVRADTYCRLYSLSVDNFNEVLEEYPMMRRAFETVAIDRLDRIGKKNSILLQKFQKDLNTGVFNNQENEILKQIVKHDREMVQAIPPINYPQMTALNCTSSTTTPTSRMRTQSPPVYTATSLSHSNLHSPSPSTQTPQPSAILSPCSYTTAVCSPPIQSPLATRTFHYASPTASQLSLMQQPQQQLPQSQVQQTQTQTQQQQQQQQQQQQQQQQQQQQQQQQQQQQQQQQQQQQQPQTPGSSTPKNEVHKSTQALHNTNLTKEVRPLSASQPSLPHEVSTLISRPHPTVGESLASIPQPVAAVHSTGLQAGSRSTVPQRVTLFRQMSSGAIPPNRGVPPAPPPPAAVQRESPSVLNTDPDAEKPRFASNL

With `CCN(c1ccccc1)c1cc(=NC)n(C)c(C)n1.Cl` [ZD 7288], the “Effect on infarct size” value in experiment [1] was “reduce infarct size”.
As to `Nc1ncnc2c1ncn2[C@@H]1O[C@@H]2COP(=O)(O)O[C@H]2[C@H]1O` [cAMP], the figures for the “cAMP-dependent shift of Ih” value in experiment [2] and in experiment [4] were 2-3 mV and 4-6 mV, respectively. In experiment [3], the “cAMP-dependent shift of If” value is on record as 10 mV.
Take `Nc1nc2c(ncn2[C@@H]2O[C@@H]3COP(O)(=S)O[C@H]3[C@H]2O)c(=O)[nH]1` (stereo partly shown) [Rp-cGMPS]: the “Effect on channel opening” value in experiment [5] was “antagonist of channel opening”.
Regarding `Nc1nc2c(ncn2[C@@H]2O[C@@H]3COP(O)(=S)O[C@H]3[C@H]2O)c(=O)[nH]1` (stereo partly shown) [Sp-cGMPS], in experiment [5], the “Effect on channel opening” value is given as “agonist”.
As for `[Ba+2]` [Ba], the “mean percent inhibition of mBCNG-1 current” value in experiment [6] (1 mM Ba in external solution, outside-out patch, n=3) came to 0±5%.
Broadly, the IC50 is the concentration that gives 50% inhibition. Take `[Cl-].[Cs+]` [Cs]: in experiment [6], the “% inhibition of mBCNG-1 current” value came to 92.4±2.5%; the “Hill coefficient for inhibition of mBCNG-1 current by Cs” value was ~1 and 1.08. For the same molecule, in experiment [6] (read-out: IC50 for inhibition of mBCNG-1 current by Cs), the concentration for half-maximal inhibition (IC50) was ~200 µM and 201 µM.
